Data: patent publication US20100152434A1, “Protein Kinase-binding Nucleosides and Associated Methods” (priority 2007, published 2010)

Assays:
Experiment in all cases: Ambit kinase phage display ATP-binding-site ligand binding assay
PAK3 = PAK3 (Homo sapiens, UniProt O75914); conditions: read-out: % Inhibition of binding to ATP-binding-site ligand
Excerpt: (§1) This assay is based on ligand-affinity/protein kinase phage display and was employed essentially as described by Fabian et. al [Nature Biotech. […] In this assay, protein kinases are cloned into T7 bacteriophage which express the kinase fusion proteins on the phage capsid. T7 kinase-tagged phage are then screened for binding to ATP-binding-site ligands that have been immobilized on a solid support. Phage are screened for binding to the anchored ligands both in the presence of test compound and in its absence (control). Elution of the bound phage by free ligand (ATP-binding site ligand that is not immobilized on a solid support) followed by determination of the phage titre provides a reliable measure of the ability of test compounds to block binding of target kinases to resin-bound ATP-binding-site ligands.
(§2) T7 kinase-tagged phage strains were grown in parallel in microtiter plates in a proprietary bacterial host derived from E. Coli strain BL21. E. Coli were grown to a log phase, infected with T7 kinase-tagged phage, and incubated while shaking at 32° C. until bacterial lysis (approx. 90 min). Lysates were centrifuged (6,000 g) and filtered (0.2 μm). […] The phage titre of the eluates was measured by quantitative PCR or by plaque assays. […]

TXK = TXK (Homo sapiens, UniProt P42681); conditions: read-out: percent inhibition of binding
Excerpt: as §1, §2

MEK6 = MEK6 (Homo sapiens, UniProt P52564); conditions: read-out: percent inhibition of binding
MEK6, sequence (P52564 whole entry): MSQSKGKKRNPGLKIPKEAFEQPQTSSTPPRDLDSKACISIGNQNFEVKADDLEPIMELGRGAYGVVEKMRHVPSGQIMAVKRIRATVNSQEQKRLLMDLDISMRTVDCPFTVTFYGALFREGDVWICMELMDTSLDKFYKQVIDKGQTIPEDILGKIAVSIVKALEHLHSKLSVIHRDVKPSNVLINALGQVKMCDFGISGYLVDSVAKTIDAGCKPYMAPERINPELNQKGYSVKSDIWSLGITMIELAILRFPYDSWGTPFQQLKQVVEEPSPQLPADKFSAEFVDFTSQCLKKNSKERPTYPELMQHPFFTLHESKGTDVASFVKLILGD
Excerpt: as §1, §2

CD2 L2 = CD2 L2 (Homo sapiens, UniProt Q9UQ88); conditions: read-out: percent inhibition of binding
CD2 L2, sequence (Q9UQ88 whole entry): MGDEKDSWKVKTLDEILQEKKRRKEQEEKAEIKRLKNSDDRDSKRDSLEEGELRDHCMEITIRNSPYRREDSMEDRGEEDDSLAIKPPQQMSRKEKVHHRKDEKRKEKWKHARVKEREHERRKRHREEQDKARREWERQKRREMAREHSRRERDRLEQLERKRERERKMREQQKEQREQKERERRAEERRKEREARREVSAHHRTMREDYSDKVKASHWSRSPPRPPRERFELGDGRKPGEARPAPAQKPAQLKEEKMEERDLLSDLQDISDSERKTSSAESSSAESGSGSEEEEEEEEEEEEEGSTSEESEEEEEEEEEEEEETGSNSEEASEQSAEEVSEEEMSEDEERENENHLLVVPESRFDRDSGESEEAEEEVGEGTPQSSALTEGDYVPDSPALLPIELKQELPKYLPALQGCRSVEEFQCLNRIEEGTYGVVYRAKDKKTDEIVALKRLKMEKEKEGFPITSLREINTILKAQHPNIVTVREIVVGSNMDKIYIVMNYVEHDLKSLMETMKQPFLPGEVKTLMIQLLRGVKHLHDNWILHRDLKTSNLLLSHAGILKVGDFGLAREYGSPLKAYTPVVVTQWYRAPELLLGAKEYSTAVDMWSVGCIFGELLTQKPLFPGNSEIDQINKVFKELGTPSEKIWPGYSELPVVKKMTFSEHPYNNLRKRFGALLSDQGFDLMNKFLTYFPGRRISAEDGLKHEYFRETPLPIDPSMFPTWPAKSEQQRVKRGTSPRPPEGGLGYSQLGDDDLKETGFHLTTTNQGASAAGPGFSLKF
Excerpt: (§3) In this assay, protein kinases are cloned into T7 bacteriophage which express the kinase fusion proteins on the phage capsid. T7 kinase-tagged phage are then screened for binding to ATP-binding-site ligands that have been immobilized on a solid support. Phage are screened for binding to the anchored ligands both in the presence of test compound and in its absence (control). Elution of the bound phage by free ligand (ATP-binding site ligand that is not immobilized on a solid support) followed by determination of the phage titre provides a reliable measure of the ability of test compounds to block binding of target kinases to resin-bound ATP-binding-site ligands.
(§4) T7 kinase-tagged phage strains were grown in parallel in microtiter plates in a proprietary bacterial host derived from E. Coli strain BL21. E. Coli were grown to a log phase, infected with T7 kinase-tagged phage, and incubated while shaking at 32° C. until bacterial lysis (approx. 90 min). Lysates were centrifuged (6,000 g) and filtered (0.2 μm). Small molecule ATP-binding-site-specific ligands were anchored to solid supports via a two step process beginning with biotin conjugation followed by treatment of the biotin/small molecule conjugate with streptavidin-coated magnetic beads. […] The phage titre of the eluates was measured by quantitative PCR or by plaque assays. […]

CSF1R = CSF1R (Homo sapiens, UniProt P07333); conditions: read-out: percent inhibition of binding
CSF1R, sequence (P07333 20-972): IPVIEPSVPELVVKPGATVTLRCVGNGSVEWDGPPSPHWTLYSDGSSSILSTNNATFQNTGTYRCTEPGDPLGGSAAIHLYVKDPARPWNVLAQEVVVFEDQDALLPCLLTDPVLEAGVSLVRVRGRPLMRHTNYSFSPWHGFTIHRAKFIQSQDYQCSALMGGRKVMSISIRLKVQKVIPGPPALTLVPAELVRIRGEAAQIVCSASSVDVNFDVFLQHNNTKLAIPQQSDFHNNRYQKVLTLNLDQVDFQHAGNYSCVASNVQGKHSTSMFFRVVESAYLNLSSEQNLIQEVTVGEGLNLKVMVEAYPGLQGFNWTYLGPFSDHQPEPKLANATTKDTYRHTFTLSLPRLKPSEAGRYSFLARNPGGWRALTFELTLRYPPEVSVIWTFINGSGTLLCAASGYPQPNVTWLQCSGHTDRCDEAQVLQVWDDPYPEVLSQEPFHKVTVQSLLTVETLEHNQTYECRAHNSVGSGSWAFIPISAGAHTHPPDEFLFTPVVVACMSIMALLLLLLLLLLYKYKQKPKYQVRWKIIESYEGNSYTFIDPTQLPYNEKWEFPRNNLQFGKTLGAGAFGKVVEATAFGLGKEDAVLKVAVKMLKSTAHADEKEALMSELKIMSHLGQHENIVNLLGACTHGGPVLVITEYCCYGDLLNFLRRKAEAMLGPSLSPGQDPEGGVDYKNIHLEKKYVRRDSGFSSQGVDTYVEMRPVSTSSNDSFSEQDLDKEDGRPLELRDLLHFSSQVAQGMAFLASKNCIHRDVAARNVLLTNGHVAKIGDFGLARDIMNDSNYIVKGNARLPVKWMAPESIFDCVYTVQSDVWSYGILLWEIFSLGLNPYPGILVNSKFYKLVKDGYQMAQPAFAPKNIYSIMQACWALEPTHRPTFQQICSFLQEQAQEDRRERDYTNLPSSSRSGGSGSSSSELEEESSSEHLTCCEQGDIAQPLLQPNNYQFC
Excerpt: as §1, §2

PIK3CG = PIK3CG (Homo sapiens, UniProt P48736); conditions: read-out: percent inhibition of binding
PIK3CG, sequence (P48736 whole entry): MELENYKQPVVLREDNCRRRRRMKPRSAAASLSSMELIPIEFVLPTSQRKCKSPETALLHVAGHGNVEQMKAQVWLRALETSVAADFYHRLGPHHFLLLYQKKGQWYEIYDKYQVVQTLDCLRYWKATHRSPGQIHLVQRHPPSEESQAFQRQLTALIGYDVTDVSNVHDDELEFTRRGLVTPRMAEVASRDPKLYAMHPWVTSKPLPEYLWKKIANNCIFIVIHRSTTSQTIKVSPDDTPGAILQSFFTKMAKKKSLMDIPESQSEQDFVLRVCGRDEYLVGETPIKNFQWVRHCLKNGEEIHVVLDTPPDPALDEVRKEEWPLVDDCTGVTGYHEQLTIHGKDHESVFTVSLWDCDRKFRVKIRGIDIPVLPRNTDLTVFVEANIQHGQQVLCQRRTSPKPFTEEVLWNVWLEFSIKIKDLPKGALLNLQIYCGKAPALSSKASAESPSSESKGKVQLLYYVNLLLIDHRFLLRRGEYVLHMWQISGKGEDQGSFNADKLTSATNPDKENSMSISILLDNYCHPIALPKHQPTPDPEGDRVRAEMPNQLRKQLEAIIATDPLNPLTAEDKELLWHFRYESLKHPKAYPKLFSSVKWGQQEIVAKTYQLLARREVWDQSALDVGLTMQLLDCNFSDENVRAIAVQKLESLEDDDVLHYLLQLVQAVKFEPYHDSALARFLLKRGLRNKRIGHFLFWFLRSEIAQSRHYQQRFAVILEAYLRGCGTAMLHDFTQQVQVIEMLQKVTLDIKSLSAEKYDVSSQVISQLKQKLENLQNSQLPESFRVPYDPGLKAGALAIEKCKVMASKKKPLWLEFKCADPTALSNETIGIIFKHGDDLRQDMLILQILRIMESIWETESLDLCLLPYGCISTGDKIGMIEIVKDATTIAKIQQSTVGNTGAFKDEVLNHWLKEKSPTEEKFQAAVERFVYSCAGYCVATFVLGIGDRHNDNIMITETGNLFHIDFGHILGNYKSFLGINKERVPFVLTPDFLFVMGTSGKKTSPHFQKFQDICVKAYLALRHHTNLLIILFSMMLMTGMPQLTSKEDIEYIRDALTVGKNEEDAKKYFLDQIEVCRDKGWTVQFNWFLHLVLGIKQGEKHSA
Excerpt: as §1, §2

HCK = HCK (Homo sapiens, UniProt P08631); conditions: read-out: percent inhibition of binding
HCK, sequence (P08631 whole entry, species assumed): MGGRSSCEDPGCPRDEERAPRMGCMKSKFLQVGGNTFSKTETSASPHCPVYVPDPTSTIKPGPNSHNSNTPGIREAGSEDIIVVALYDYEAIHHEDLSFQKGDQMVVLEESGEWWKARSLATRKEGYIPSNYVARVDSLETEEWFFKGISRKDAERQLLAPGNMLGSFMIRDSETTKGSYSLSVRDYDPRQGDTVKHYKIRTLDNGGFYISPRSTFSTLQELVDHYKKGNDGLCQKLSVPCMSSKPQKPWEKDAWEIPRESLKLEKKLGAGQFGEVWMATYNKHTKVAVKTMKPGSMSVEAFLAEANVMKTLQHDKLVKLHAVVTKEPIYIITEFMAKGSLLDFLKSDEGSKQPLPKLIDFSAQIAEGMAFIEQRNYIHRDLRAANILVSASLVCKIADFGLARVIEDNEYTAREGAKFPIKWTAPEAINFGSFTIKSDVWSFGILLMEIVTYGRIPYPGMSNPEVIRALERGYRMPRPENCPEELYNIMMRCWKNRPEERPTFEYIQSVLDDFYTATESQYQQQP
Excerpt: as §1, §2

PHKG2 = PHKG2 (Homo sapiens, UniProt P15735); conditions: read-out: percent inhibition of binding
Excerpt: as §1, §2

p38-beta = p38-beta (Homo sapiens, UniProt Q15759); conditions: read-out: percent inhibition of binding
p38-beta, sequence (Q15759 whole entry): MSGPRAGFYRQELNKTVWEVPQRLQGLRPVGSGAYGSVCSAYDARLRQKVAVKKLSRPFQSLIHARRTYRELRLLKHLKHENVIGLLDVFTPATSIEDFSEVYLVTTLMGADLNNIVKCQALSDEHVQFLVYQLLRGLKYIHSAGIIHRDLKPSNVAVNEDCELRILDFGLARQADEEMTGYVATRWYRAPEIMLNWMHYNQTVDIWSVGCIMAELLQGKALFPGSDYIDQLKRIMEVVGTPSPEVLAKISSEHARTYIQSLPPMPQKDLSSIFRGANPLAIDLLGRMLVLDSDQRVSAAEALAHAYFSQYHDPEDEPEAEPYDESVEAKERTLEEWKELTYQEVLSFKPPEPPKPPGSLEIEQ
Excerpt: as §3, §4

CDK5 = CDK5 (Homo sapiens, UniProt Q00535); conditions: read-out: percent inhibition of binding
CDK5, sequence (Q00535 whole entry): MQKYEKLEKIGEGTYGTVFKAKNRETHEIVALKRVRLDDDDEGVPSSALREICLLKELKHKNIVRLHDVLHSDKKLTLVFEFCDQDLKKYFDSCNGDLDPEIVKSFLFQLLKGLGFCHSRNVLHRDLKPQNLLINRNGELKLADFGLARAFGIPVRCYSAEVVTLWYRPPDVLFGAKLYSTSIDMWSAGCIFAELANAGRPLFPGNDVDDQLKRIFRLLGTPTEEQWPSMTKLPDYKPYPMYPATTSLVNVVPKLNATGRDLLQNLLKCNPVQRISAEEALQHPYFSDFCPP
Excerpt: as §3, §4

Measured: inhibition at 10 µM

TXK, sequence (P42681 whole entry): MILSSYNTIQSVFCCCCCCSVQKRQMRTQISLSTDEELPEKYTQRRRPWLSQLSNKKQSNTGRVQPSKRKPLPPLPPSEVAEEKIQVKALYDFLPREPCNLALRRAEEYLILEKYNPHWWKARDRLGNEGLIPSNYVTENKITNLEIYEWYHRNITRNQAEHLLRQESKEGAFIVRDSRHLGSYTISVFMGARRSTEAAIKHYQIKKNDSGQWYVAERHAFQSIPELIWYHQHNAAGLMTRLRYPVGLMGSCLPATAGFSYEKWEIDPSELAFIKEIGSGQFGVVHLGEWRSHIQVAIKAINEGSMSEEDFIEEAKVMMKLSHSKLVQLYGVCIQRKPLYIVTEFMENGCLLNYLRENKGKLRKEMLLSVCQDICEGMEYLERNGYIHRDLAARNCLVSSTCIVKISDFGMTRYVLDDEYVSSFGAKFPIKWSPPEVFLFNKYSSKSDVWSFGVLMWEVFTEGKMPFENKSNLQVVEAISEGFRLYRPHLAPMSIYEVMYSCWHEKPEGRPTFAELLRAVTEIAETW

CCOC(=O)C[C@@H]1C(O[Si](C)(C)C(C)(C)C)[C@H](n2cnc3c(NC(=O)Nc4ccccc4)ncnc32)O[C@@H]1CNC(=O)NC (stereo partly shown) [Compound 10]
33%: PAK3
20 to 29%: all other assays above
